In paper PMC11672294, “The Antipsychotic Drug Aripiprazole Suppresses Colorectal Cancer by Targeting LAMP2a to Induce RNH1/miR‐99a/mTOR‐Mediated Autophagy and Apoptosis” (Advanced Science, 2024):
Counter-ions that a name gives are not always drawn. Like-named read-outs stand apart in the source and are kept apart here.

Test system: HT29
Details: 72 h, 10 µM
How it was run: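 Cells were exposed to drug for 72 h, then to WST-1 for 2 h at 37 °C, and absorbance was read at 450 nm as viability against DMSO treatment. In the screen, each compound was applied at 10 µM.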

| SMILES | Relative cell viability (%) (relative to DMSO) [%] | Relative cell viability (%) (ht29 cells) [%] |
| --- | --- | --- |
| CCCOc1ccc(C(=O)OCCN(CC)CC)cc1N [Proparacaine HCl] | 89.41 | – |
| O=C(O)c1cccnc1Nc1cccc(C(F)(F)F)c1 [Niflumic acid] | 95.63 | – |
| CCCC1O[C@@H]2C[C@H]3[C@@H]4CCC5=CC(=O)C=C[C@]5(C)[C@H]4[C@@H](O)C[C@]3(C)[C@]2(C(=O)CO)O1 (stereo partly drawn) [Budesonide] | 83.64 | – |
| C/C(=C\C(=O)OCCCCCCCCC(=O)O)C[C@@H]1OC[C@H](C[C@@H]2O[C@H]2[C@@H](C)[C@H](C)O)[C@@H](O)[C@H]1O [Mupirocin] | 92.12 | – |
| Cn1nnc2c(C(N)=O)ncn2c1=O [Temozolomide] | 86.76 | – |
| C[C@]12CCC3=C4CCC(=O)C=C4CC[C@H]3[C@@H]1CC[C@@]2(O)CC#N [Dienogest] | 96.11 | – |
| CC1(C)Cc2c(-c3ccccc3)c(-c3ccc(Cl)cc3)c(CC(=O)O)n2C1 [Licofelone] | 137.9 | – |
| C#C[C@]1(O)CC[C@H]2[C@@H]3CCc4cc(OC)ccc4[C@H]3CC[C@@]21C [Mestranol] | 119.6 | – |
| O=C(O)c1cc(=O)[nH]c(=O)[nH]1 [Orotic acid (6-Carboxyuracil)] | 101.4 | – |
| C[C@H](NC(=O)C(=O)Nc1ccccc1C(C)(C)C)C(=O)N[C@@H](CC(=O)O)C(=O)COc1c(F)c(F)cc(F)c1F [Emricasan] | 86.75 | – |
| Cc1cccc(C)c1NC(=O)CN1CCCC1=O [Nefiracetam] | 192.8 | – |
| C[C@@H]1O[C@@H](OC[C@H]2O[C@@H](Oc3c(-c4ccc(O)c(O)c4)oc4cc(O)cc(O)c4c3=O)[C@H](O)[C@@H](O)[C@@H]2O)[C@H](O)[C@H](O)[C@H]1O [Rutin] | 112 | – |
| OC[C@@H](O)[C@@H](O)[C@H](O)[C@H](O)CO [D-Mannitol] | 114.9 | – |
| Oc1c(Cl)cc(Cl)c2cccnc12 [Chloroxine] | 69.07 | – |
| O=C(O)Cc1cc(I)c(Oc2ccc(O)c(I)c2)c(I)c1 [Tiratricol] | 83.03 | – |
| CCCCc1oc2ccc(NS(C)(=O)=O)cc2c1C(=O)c1ccc(OCCCN(CCCC)CCCC)cc1 [Dronedarone HCl] | 86.05 | – |
| O=C(O)c1cn(-c2ccc(F)cc2)c2cc(N3CCNCC3)c(F)cc2c1=O [Sarafloxacin HCl] | 85.35 | – |
| CC[C@H]1OC(=O)[C@H](C)[C@@H](O[C@H]2C[C@@](C)(OC)[C@@H](O)[C@H](C)O2)[C@H](C)[C@@H](O[C@@H]2O[C@H](C)C[C@H](N(C)C)[C@H]2O)[C@](C)(O)C[C@@H](C)[C@@H]2N[C@@H](COCCOC)O[C@H]([C@H]2C)[C@]1(C)O [Dirithromycin] | – | 84.85 |
| CN1CC[C@H](c2c(O)cc(O)c3c(=O)cc(-c4ccccc4Cl)oc23)[C@H](O)C1 [Flavopiridol (Alvocidib)] | 8.879 | – |
| CC(=O)[C@H]1CC[C@H]2[C@@H]3CC=C4C[C@@H](O)CC[C@]4(C)[C@H]3CC[C@]12C [Pregnenolone] | 94.21 | – |
| OC[C@@H](O)[C@@H](O)[C@H](O)[C@@H](O)CO [Sorbitol] | 125 | – |
| CCCCOc1ccc(CC(=O)NO)cc1 [Bufexamac] | 101.5 | – |
| CN1CCN(c2ccc(C(=O)Nc3n[nH]c4ccc(Cc5cc(F)cc(F)c5)cc34)c(NC3CCOCC3)c2)CC1 [Entrectinib (RXDX-101)] | 2.137 | – |

| SMILES | Relative cell viability (%) (relative to DMSO) [%] | Relative cell viability (%) (ht29 cells) [%] |
| --- | --- | --- |
| CC(C)C[C@H](NC(=O)CNC(=O)c1cc(Cl)ccc1Cl)B(O)O [MLN2238] | 125 | – |
| NC(=O)OCC(COC(N)=O)c1ccccc1 [Felbamate] | 69.63 | – |
| CC(=O)N1CCN(c2ccc(OC[C@@H]3CO[C@@](Cn4ccnc4)(c4ccc(Cl)cc4Cl)O3)cc2)CC1 (racemic) [Ketoconazole] | 43.15 | – |
| C[C@H]1COc2c(N3CCN(C)CC3)c(F)cc3c(=O)c(C(=O)O)cn1c23 [Levofloxacin] | 124 | – |
| O=c1c(-c2ccc(O)cc2)coc2cc(O)cc(O)c12 [Genistein] | 102.3 | – |
| CC[C@@H]1C(=O)N(C)c2cnc(Nc3ccc(C(=O)N[C@H]4CC[C@H](N5CCN(CC6CC6)CC5)CC4)cc3OC)nc2N1C(C)C [Volasertib (BI 6727)] | 88.41 | – |
| CC(C)=CCC/C(C)=C/CC/C(C)=C/CSc1ccccc1C(=O)O [Salirasib] | 84.19 | – |
| OCCN(CCO)c1nc(N2CCCCC2)c2nc(N(CCO)CCO)nc(N3CCCCC3)c2n1 [Dipyridamole] | 52.54 | – |
| CC(=O)Oc1ccccc1C(=O)O [Aspirin] | 63.59 | – |
| Cc1cc(C)c2c(c1)[C@@H](N(Cc1cc(C(F)(F)F)cc(C(F)(F)F)c1)c1nnn(C)n1)CCCN2C[C@H]1CC[C@H](C(=O)O)CC1 [Evacetrapib (LY2484595)] | 40.29 | – |
| Fc1ccc([C@@H]2CCNC[C@H]2COc2ccc3c(c2)OCO3)cc1 [Paroxetine HCl] | 19.9 | – |
| O=C(/C=C/C=C/c1ccc2c(c1)OCO2)N1CCCCC1 [Piperine] | 104.9 | – |
| Cc1noc(NS(=O)(=O)c2ccc(N)cc2)c1C [Sulfisoxazole] | 134.3 | – |
| COc1cc(OC)c(C(=O)CCCN2CCCC2)c(OC)c1 [Buflomedil HCl] | 34.47 | – |
| CN1C(=O)CCS(=O)(=O)C1c1ccc(Cl)cc1 (stereo not drawn) [Chlormezanone] | 142.8 | – |
| c1ccc2[nH]c(-c3cscn3)nc2c1 [Thiabendazole] | 70.34 | – |
| CCCC(=O)OCOC(=O)C1=C(C)NC(C)=C(C(=O)OC)C1c1cccc(Cl)c1Cl (stereo not drawn) [Clevidipine Butyrate] | 112 | – |
| CCc1c2c(nc3ccc(OC(=O)N4CCC(N5CCCCC5)CC4)cc13)-c1cc3c(c(=O)n1C2)COC(=O)[C@]3(O)CC [Irinotecan HCl Trihydrate] | 113.8 | – |
| Cn1c(=O)cc(N2CCC[C@@H](N)C2)n(Cc2ccccc2C#N)c1=O [Alogliptin] | 101.5 | – |
| NS(=O)(=O)NCCNc1nonc1C(=NO)Nc1ccc(F)c(Br)c1 [Epacadostat (INCB024360)] | 100.9 | – |
| CCCCC(=O)N(Cc1ccc(-c2ccccc2-c2nnn[nH]2)cc1)[C@H](C(=O)O)C(C)C [Valsartan] | 83.05 | – |
| CC(=O)Nc1cccc(-n2c(=O)n(C3CC3)c(=O)c3c(Nc4ccc(I)cc4F)n(C)c(=O)c(C)c32)c1 [Trametinib (GSK1120212)] | 35.92 | – |
| COc1ccc([C@@H]2Sc3ccccc3N(CCN(C)C)C(=O)[C@@H]2OC(C)=O)cc1 [Diltiazem HCl] | 67.8 | – |

| SMILES | Relative cell viability (%) (relative to DMSO) [%] | Relative cell viability (%) (ht29 cells) [%] |
| --- | --- | --- |
| CC1(C)S[C@@H]2[C@H](NC(=O)[C@H](NC(=O)N3CCN(S(C)(=O)=O)C3=O)c3ccccc3)C(=O)N2[C@H]1C(=O)O [Mezlocillin Sodium] | 90.303 | – |
| COc1cc([C@@H]2c3cc4c(cc3[C@@H](O[C@@H]3O[C@@H]5CO[C@@H](C)O[C@H]5[C@H](O)[C@H]3O)[C@H]3COC(=O)[C@H]23)OCO4)cc(OC)c1O [Etoposide] | 117.9 | – |
| CC(NC(C)(C)C)C(=O)c1cccc(Cl)c1 (stereo not drawn) [Amfebutamone HCl] | 104.9 | – |
| CC(C)OC(=O)[C@H](C)N[P@](=O)(OC[C@H]1O[C@@H](n2ccc(=O)[nH]c2=O)[C@](C)(F)[C@@H]1O)Oc1ccccc1 [Sofosbuvir (PSI-7977, GS-7977)] | 121.8 | – |
| NC(=O)NO [Hydroxyurea] | 70.34 | – |
| CCOC(=O)C1=C[C@]2(CC)CCCN3CCc4c(n1c1ccccc41)[C@@H]32 [Vinpocetine] | 107.3 | – |
| CC1Cc2ccccc2N1NC(=O)c1ccc(Cl)c(S(N)(=O)=O)c1 (stereo not drawn) [Indapamide] | 71.61 | – |
| Cc1ccc2c(Cl)cc(Cl)c(O)c2n1 [Chlorquinaldol] | 41.21 | – |
| Cc1cn([C@H]2O[C@@H](CO)[C@H](O)[C@H]2F)c(=O)[nH]c1=O [Clevudine] | 97.09 | – |
| CCc1cnn2c(NCc3ccc[n+]([O-])c3)cc(N3CCCC[C@H]3CCO)nc12 [Dinaciclib (SCH727965)] | 33.01 | – |
| Cc1ccc(C(=O)C(C)CN2CCCCC2)cc1 (stereo not drawn) [Tolperisone HCl] | 89.39 | – |
| O=c1sn(-c2cccc3ccccc23)c(=O)n1Cc1ccccc1 [Tideglusib] | 51.94 | – |
| CC(C(=O)O)c1ccc(CC2CCCC2=O)cc1 (stereo not drawn) [Loxoprofen] | 82.91 | – |
| CC1(C)S[C@@H]2[C@H](NC(=O)[C@H](N)c3ccc(O)cc3)C(=O)N2[C@H]1C(=O)O [Amoxicillin] | 67.96 | – |
| CCCCCCCCCCCCCCCC(=O)O[C@@H]1[C@@H](O)[C@@H](O)[C@@H]([C@H](NC(=O)[C@@H]2C[C@@H](CCC)CN2C)[C@H](C)Cl)O[C@@H]1SC [Clindamycin palmitate HCl] | 40.29 | – |
| CNC(=C[N+](=O)[O-])NCCSCc1csc(CN(C)C)n1 [Nizatidine] | 77.97 | – |
| Nc1nc(O)c2ncn(COC(CO)CO)c2n1 [Ganciclovir] | 103.4 | – |
| CN(Cc1cc(Br)cc(Br)c1N)C1CCCCC1 [Bromhexine HCl] | 122.9 | – |
| O=c1[nH]c(=O)n([C@H]2C[C@H](O)[C@@H](CO)O2)cc1I [Idoxuridine] | 86.86 | – |
| c1ccc(CN(CC2=NCCN2)c2ccccc2)cc1 [Antazoline HCl] | 63.94 | – |
| CCOC(=O)[C@H](CCc1ccccc1)N[C@@H](C)C(=O)N1Cc2cc(OC)c(OC)cc2C[C@H]1C(=O)O [Moexipril HCl] | 110.2 | – |
| CC(=O)O[C@]1(C(C)=O)CC[C@H]2[C@@H]3C=C(C)C4=CC(=O)CC[C@]4(C)[C@H]3CC[C@@]21C [Megestrol Acetate] | 68.07 | – |
| Cc1ccc(S(=O)(=O)NC(=O)NN2CC3CCC[C@@H]3C2)cc1 (stereo in doubt) [Gliclazide] | 70.87 | – |
